This is an account of results in EP1192131B1, “METHOD OF INHIBITING AMYLOID PROTEIN AGGREGATION AND IMAGING AMYLOID DEPOSITS USING ISOINDOLINE DERIVATIVES” (Warner-Lambert Company LLC, priority 1999, dated 2000).

Where “and” joins values, the source holds several entries; their conditions need not be identical. Equal entries are not always repeated. Where two headings read alike, the source gives them in different places.

Common to all, as to assay type: biochemical
Experiment [1] has as its target T1, Aβ (1-42) (Homo sapiens, UniProt P05067).
T1 construct: Required Aβ (1-42)(California Peptide) was dried from its hexafluoroisopropanol (HFIP) stock solution; purchased California Peptide
The experiment is described as follows: BATYM assay, Aβ (1-42) aggregation, Thioflavin T fluorescence. The protocol: Required Aβ (1-42)(California Peptide) was dried from its hexafluoroisopropanol (HFIP) stock solution. The Aβ (1-42) was dissolved in dimethylsulfoxide (DMSO) and then mixed with phosphate buffered saline (PBS) (pH 7.4). The mixed Aβ (1-42) solution was filtered through a […] Omnipore membrane syringe filter (Millipore, Bedford, MA). The compound to be tested in DMSO (50 times concentrate) was put into each well (0.5 µL/well) of a 96-well plate. The Aβ (1-42) solution was added into each well (24.5 µL/well). The plate was centrifuged at 1,000 g for 5 minutes and incubated at 37°C for 1 day (Aβ 1-42; final concentration 100 µM).
After incubation Thioflavin T (ThT) (30 µM) solution in glycine-NaOH buffer (pH 8.5, 50 mM) was added into each well (250 µL/well), fluorescence was measured (ex. 440/20 nm; em 485/20 nm) using a fluorescence plate reader. The inhibitory activity was calculated as the reduction of fluorescence with the following formula: Inhibition (%) = {(F(Aβ)-F(Aβ+compound)}/{F(Aβ)-F (solvent+compound)} × 100 [formula]
The IC50s (concentration of test compound required to cause a 50% inhibition of aggregation) were calculated by a curve fitting program using the following equation. The data were obtained from two different experiments in triplicate. Inhibition (x) = 100-100/{1 + (x/IC50)^n }, [formula] x = concentration of tested compound (M), IC50 = (M), n = Hill coefficient.

Experiment [2] has as its target T2, Aβ (1-40) peptide (Homo sapiens, UniProt P05067).
T2 construct: 10 µL 0.5 mg/mL Aβ (1-40) peptide in 20% HFIP
Put plainly: BAPA (Beta-Amyloid Peptide Aggregation, pH 6.0), filtration endpoint assay. As to the method:
BAPA (Beta-Amyloid Peptide Aggregation
This assay is used to provide a measure of inhibition by a compound against the aggregation behavior of the beta amyloid peptide.
The purpose of this assay is to provide a higher volume method of assaying the amount of beta amyloid aggregation using an endpoint assay based on filtration. In this assay, hexafluoroisopropanol (HFIP) is used to break down the initial amyloid peptide to a monomer state and use a concentration of 33 µM which is high enough so that aggregation will occur at pH 6.0 in several hours.
β-Amyloid Peptide Aggregation. pH 6 0 (BAPA)
In a 96-well plate (Costar 3794), we add 25 µL 50 mM Phosphate Buffer, pH 6.0, 10 µL 0.5 mg/mL Aβ (1-40) peptide in 20% HFIP + 0.1 µL/assay radioiodinated ^125I Aβ (1-40) [^125I Aβ(1-40)], and 1 µL of the compound to be tested starting at 50 mM with a concentration of DMSO <1%. Then, we incubate for 2 to 4 hours at room temperature. We stop the reaction with 200 µL of 50 mM phosphate buffer, pH 6.0, and filter it through a 0.2 µm 96-well filter plate (Millipore MAGU N22) We wash the filter plate with 100 µL of the same phosphate buffer. Aggregation was detected on a Microbeta counter after impregnating the filters with Meltilex (1450-441) and is corrected for background

Experiment [3] concerns the target Aβ(1-40) (Homo sapiens, UniProt P05067). Put plainly: BASST (Beta-Amyloid Self-seeding, ThioflavinT), inhibition of self-seeded amyloid fibril growth. Further details: 30 µM soluble Aβ (1-40) in deionized water in assay buffer. The conditions noted are these: 30 µM soluble Aβ (1-40), 37°C, 3 to 5 hours, thioflavin T fluorescence, letter in parentheses = lot of compound (no letter = Lot P). As to the method: BASST (Beta-Amyloid Self-seeding, ThioflavinT)
An assay for inhibitors of self-seeded amyloid fibril growth
Assay Buffer - 50 mM sodium phosphate, pH 7.5, 100 mM NaCl, 0.02% NaN3, 1 M urea (filter and store at 4°C).
Soluble Aβ (1-40) - 2.2 mg/mL in deionized H2O (store in aliquots at -20°C, keep on ice when thawed) will self-seed after 1 week storage. Typically, the solution should be stored until no lag phase is seen in the assay.
Final assay conditions: 30 µM soluble Aβ (1-40) in deionized water in assay buffer. Compound to be tested is dissolved in DMSO, typically 5-50 mM stock, such that the final concentration of DMSO is <1% v/v in the assay.
Assay: Reaction mixture for 50 assays (on ice) comprised of 1 µL of soluble Aβ (1-40) + 13.5 µL assay buffer per assay. The following are the amounts of the components of the reaction mixture that result in each of the 50 assay wells. 50 µL soluble Aβ (1-40) 675 µL assay buffer
• 1) Prepare the reaction mix above by mixing the components and storing on ice. • 2) Pipet 14.5 µL of reaction mixture into each of 50 wells of a polystyrene U-bottom 96-well microtiter plate (Coming 25881-96) on ice. • 3) Add 1.7 µL of diluted compound to be tested to each well in a column of eight, including solvent control. Serial 3-fold dilutions from 1 mM (100 µM final) in assay buffer -urea = 7 dilutions + zero. Each 96-well plate can therefore accommodate 11 samples + 1 Congo Red control (0.039-5 µM final in 2-fold steps). • 4) Seal the plate with aluminum film and incubate for 10 minutes on ice. • 5) Raise the temperature to 37°C and incubate for 3 to 5 hours (depends on the lot of the peptide). • 6) Remove the aluminum film and add 250 µL/well of 5 µM thioflavin T (ThT) [T-3516, Sigma-Aldrich] in 50 mM glycine-NaOH, pH 8.5. Read fluorescence on a plate reader (ex = 440 nm/20 nm; em = 485 nm/20 nm) within 5 minutes.

Setting [4] is: Aβ 1-42 final concentration 100 µM, 37°C, 1 day, letter in parentheses = lot of compound (no letter = Lot P), read-out: BATYM IC50.
The mark [5] stands for this setting: Aβ (1-40) 33 µM, pH 6.0, 2 to 4 hours at room temperature; letter in parentheses = lot of compound (no letter = Lot P); read-out: BAPA IC50.
Setting [6] is: read-out: BASST IC50 (converted).
Where [7] appears, read: read-out: BATYM IC50, Aβ 1-42 final concentration 100 µM, 37°C, 1 day, letter in parentheses = lot of compound (no letter = Lot P).
Setting [8] is: read-out: BAPA IC50; Aβ (1-40) 33 µM, pH 6.0, 2 to 4 hours at room temperature; letter in parentheses = lot of compound (no letter = Lot P).

T2 sequence (P05067 672-711): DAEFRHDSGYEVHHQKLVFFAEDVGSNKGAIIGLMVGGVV
Sequence of Aβ(1-40) (P05067 672-711): as above
T1 sequence (P05067 672-713): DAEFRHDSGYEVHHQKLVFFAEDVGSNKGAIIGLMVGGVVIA

In the case of “2-[2-(3,4-Dimethylphenyl)-2,3-dihydro-1H-isoindol-5-ylamino]benzoic acid [Example 9]”, the values for the IC50 in experiment [1] (setting [4]), in experiment [2] (setting [5]) and in experiment [3] (setting [6]) were 32.9 µM, 13 µM and 1.5 µM, respectively.

With “2-[2-(3-chlorophenyl)-2,3-dihydro-1H-isoindol-5-ylamino]benzoic acid [Example 7]”, the values for the IC50 in experiment [1] (setting [4]), in experiment [2] (setting [5]) and in experiment [3] (setting [6]) were 37.3 µM, 28 µM and 1.1 µM, respectively.

With “2-[2-(4-chlorophenyl)-2,3-dihydro-1H-isoindol-5-ylamino]benzoic acid [Example 8]”, the IC50 in experiment [1] (setting [4]) is 33.4 µM; in experiment [2] (setting [5]) it was 19 µM; in experiment [3] (setting [6]), 1 µM.

On to `O=C(O)c1ccccc1Nc1ccc2c(c1)CN(c1ccc(Cl)c(Cl)c1)C2` [Example 4, 2-[2-(3,4-Dichlorophenyl)-2,3-dihydro-1H-isoindol-5-ylamino]benzoic acid], for which the IC50 in experiment [1] (setting [4]) is 26.1 µM and 22.2 µM; in experiment [2] (setting [5]) it was 101 µM and > 100 µM and 93 µM; in experiment [3] (setting [6]), 2 µM.

Consider `COc1cc(Nc2ccc3c(c2)CN(c2ccc(Cl)c(Cl)c2)C3)c(C(=O)O)cc1[N+](=O)[O-]` [Example 6, 2-[2-(3,4-Dichlorophenyl)-2,3-dihydro-1H-isoindol-5-ylamino]-4-methoxy-5-nitro-benzoic acid], for which the IC50 in experiment [1] (setting [4]) is 13.5 µM and 14.6 µM; in experiment [2] (setting [5]), 14 µM; in experiment [3] (setting [6]), 1 µM and 1.5 µM.

On to `O=C(O)c1ccccc1Nc1ccc2c(c1)CN(c1ccc(Cl)c(C(F)(F)F)c1)C2` [Example 10, 2-[2-(4-Chloro-3-trifluoromethylphenyl)-2,3-dihydro-1H-isoindol-5-ylamino]benzoic acid], for which the IC50 in experiment [1] (setting [7]) was found to be 34.6 µM; in experiment [2] (setting [8]) it was 16 µM; in experiment [3] (read-out: BASST IC50) it was 3 µM.

In the case of `Cc1ccc(N2Cc3ccc(Nc4ccc([N+](=O)[O-])cc4C(=O)O)cc3C2)cc1C` [Example 12, 2-[2-(3,4-Dimethyl-phenyl)-2,3-dihydro-1H-isoindol-5-ylamino]-5-nitro-benzoic acid], the IC50 in experiment [1] (setting [4]) was 11.7 µM; in experiment [2] (setting [5]), 5 µM; in experiment [3] (setting [6]) it was 1.1 µM.

Take `O=C(O)c1cc([N+](=O)[O-])ccc1Nc1ccc2c(c1)CN(c1ccc(Cl)cc1)C2` [Example 15, 2-[2-(4-Chloro-phenyl)-2,3-dihydro-1H-isoindol-5-ylamino]-5-nitro-benzoic acid]: the values for the IC50 in experiment [1] (setting [4]), in experiment [2] (setting [5]) and in experiment [3] (setting [6]) were 32.5 µM, above 100 µM and 0.6 µM, respectively.

For `Clc1ccc(N2Cc3ccc(Nc4ccccc4-c4nnn[nH]4)cc3C2)cc1Cl` [Example 16, [2-(3,4-Dichloro-phenyl)-2,3-dihydro-1H-isoindol-5-yl]-[2-(1H-tetrazol-5-yl)-phenyl]-amine], the IC50 was 29.5 µM in experiment [1] (setting [4]), 86 µM in experiment [2] (setting [5]) and 1.8 µM in experiment [3] (setting [6]).

With `Nc1ccc(Nc2ccc3c(c2)CN(c2ccc(Cl)c(Cl)c2)C3)c(C(=O)O)c1` [Example 17, 5-Amino-2-[2-(3,4-dichloro-phenyl)-2,3-dihydro-1H-isoindol-5-ylamino]-benzoic acid], the values for the IC50 in experiment [1] (setting [4]), in experiment [2] (setting [5]) and in experiment [3] (setting [6]) were 20 µM, 40 µM and 1.5 µM, respectively.

`O=C(O)c1cc([N+](=O)[O-])ccc1Nc1ccc2c(c1)CN(c1ccccc1)C2` [Example 18, 5-Nitro-2-(2-phenyl-2,3-dihydro-1H-isoindol-5-ylamino)-benzoic acid]: the IC50 in experiment [1] (setting [4]) is 16.6 µM; in experiment [2] (setting [5]), 97 µM; in experiment [3] (setting [6]) it was 0.9 µM and 1 µM and 0.6 µM.

`O=C(O)c1cc([N+](=O)[O-])ccc1Nc1ccc2c(c1)CN(c1ccc(Cl)c(C(F)(F)F)c1)C2` [Example 19, 2-[2-(4-Chloro-3-trifluoromethyl-phenyl)-2,3-dihydro-1H-isoindol-5-ylamino]-5-nitro-benzoic acid]: the values for the IC50 in experiment [1] (setting [7]), in experiment [2] (setting [8]) and in experiment [3] (read-out: BASST IC50) were 12.8 µM, above 10 µM and 1 µM, respectively.

For `O=C(O)c1cc([N+](=O)[O-])ccc1Nc1ccc2c(c1)CN(c1cccc(F)c1)C2` [Example 20, 2-[2-(3-Fluoro-phenyl)-2,3-dihydro-1H-isoindol-5-ylamino]-5-nitro-benzoic acid], the IC50 in experiment [1] (setting [4]) was 11.5 µM; in experiment [2] (setting [5]), above 60 µM; in experiment [3] (setting [6]), 2 µM.

For the compound `COc1cccc(N2Cc3ccc(Nc4ccc([N+](=O)[O-])cc4C(=O)O)cc3C2)c1` [Example 21, 2-[2-(3-Methoxy-phenyl)-2,3-dihydro-1H-isoindol-5-ylamino]-5-nitro-benzoic acid], the results for the IC50 in experiment [1] (setting [4]), in experiment [2] (setting [5]) and in experiment [3] (setting [6]) were 9.64 µM, above 60 µM and 0.7 µM, respectively.

Regarding `O=C(O)c1ccccc1Nc1ccc2c(c1)CN(c1cccc(F)c1)C2` [Example 22, 2-[2-(3-Fluoro-phenyl)-2,3-dihydro-1H-isoindol-5-ylamino]-benzoic acid], the IC50 was 84 µM in experiment [1] (setting [4]); above 60 µM in experiment [2] (setting [5]); 6 µM and 2 µM in experiment [3] (setting [6]).

For `O=C(O)c1cc(F)ccc1Nc1ccc2c(c1)CN(c1ccc(Cl)c(Cl)c1)C2` [Example 23, 2-[2-(3,4-Dichloro-phenyl)-2,3-dihydro-1H-isoindol-5-ylamino]-5-fluoro-benzoic acid], the IC50 is 34.1 µM in experiment [1] (setting [4]); 62 µM in experiment [2] (setting [5]); 3 µM and 2 µM (2×) in experiment [3] (setting [6]).

For the compound `COc1cc(N2Cc3ccc(Nc4ccccc4C#N)cc3C2)cc(OC)c1OC` [Example 25, 2-[2-(3,4,5-Trimethoxy-phenyl)-2,3-dihydro-1H-isoindol-5-ylamino]-benzonitrile], the figures for the IC50 in experiment [1] (setting [4]), in experiment [2] (setting [5]) and in experiment [3] (setting [6]) were above 100 µM, 25 µM and 15 µM, respectively.
